This note sets out measurements from patent publication EP0942911B1, “BENZOPYRANOPYRROLE AND BENZOPYRANOPYRIDINE ALPHA-1 ADRENERGIC COMPOUNDS” (Abbott Laboratories, priority 1996, dated 1998).

What all share (assay): biochemical
In one assay the target is T1, α-1d adrenoreceptor (Rattus norvegicus, UniProt P23944).
T1 sequence (P23944 1-561): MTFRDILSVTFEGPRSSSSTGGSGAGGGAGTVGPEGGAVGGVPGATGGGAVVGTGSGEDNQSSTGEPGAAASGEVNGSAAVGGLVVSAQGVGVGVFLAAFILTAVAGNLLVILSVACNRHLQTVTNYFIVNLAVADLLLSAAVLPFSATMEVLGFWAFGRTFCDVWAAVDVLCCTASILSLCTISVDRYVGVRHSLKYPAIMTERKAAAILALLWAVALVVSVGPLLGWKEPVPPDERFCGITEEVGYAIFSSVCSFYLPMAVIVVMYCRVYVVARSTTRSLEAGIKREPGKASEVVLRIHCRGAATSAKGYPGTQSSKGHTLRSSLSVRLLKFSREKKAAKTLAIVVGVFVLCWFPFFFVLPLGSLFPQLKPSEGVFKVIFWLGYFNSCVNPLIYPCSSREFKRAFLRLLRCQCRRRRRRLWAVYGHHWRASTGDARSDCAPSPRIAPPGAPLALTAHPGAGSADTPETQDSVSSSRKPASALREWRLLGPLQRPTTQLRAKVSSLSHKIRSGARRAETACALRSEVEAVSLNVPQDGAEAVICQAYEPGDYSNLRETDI
It is filed as binding. The note with it: [3H]-prazosin radioligand; cloned receptor in LTK cell membranes; read-out: Radioligand Binding (Ki, nM) 1d (Rat). Summed up:
(§1)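 Cloned α-1a (bovine), α-1b (hamster) and α-1d (rat) adrenoreceptors were stably expressed in mouse LTK fibroblasts; membranes from roller-bottle cultures were used. Native α-1A sites came from rat submaxillary gland. Radioligand binding followed Greengrass and Bremner, with liquid scintillation read-out.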

The target in assay [1] is T2, α-1A adrenoreceptor (rat submaxillary gland) (Rattus norvegicus, UniProt P43140).
T2 sequence (P43140 1-466): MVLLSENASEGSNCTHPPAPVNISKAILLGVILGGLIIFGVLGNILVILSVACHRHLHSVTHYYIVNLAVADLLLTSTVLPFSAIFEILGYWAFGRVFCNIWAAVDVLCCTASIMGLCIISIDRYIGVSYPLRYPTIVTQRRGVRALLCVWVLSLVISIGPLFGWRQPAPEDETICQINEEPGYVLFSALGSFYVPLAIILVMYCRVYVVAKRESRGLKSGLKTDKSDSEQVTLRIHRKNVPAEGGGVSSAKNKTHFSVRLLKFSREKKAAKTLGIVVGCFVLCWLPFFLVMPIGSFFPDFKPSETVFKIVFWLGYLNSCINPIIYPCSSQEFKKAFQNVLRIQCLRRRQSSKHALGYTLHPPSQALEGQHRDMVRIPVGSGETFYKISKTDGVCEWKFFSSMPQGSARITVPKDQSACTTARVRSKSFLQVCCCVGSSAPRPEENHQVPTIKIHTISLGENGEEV
Format: binding. The note with it: [3H]-prazosin radioligand; rat submaxillary gland membranes; read-out: Radioligand Binding (Ki, nM) 1A (Rat). In a few lines:
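Radioligand binding to α-1A sites in membrane homogenates of rat submaxillary gland, run after Greengrass and Bremner. Bound radioactivity counted by liquid scintillation.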

Another assay deals with T3, α-1b adrenoreceptor (Mesocricetus auratus, UniProt P18841).
T3 sequence (P18841 1-515): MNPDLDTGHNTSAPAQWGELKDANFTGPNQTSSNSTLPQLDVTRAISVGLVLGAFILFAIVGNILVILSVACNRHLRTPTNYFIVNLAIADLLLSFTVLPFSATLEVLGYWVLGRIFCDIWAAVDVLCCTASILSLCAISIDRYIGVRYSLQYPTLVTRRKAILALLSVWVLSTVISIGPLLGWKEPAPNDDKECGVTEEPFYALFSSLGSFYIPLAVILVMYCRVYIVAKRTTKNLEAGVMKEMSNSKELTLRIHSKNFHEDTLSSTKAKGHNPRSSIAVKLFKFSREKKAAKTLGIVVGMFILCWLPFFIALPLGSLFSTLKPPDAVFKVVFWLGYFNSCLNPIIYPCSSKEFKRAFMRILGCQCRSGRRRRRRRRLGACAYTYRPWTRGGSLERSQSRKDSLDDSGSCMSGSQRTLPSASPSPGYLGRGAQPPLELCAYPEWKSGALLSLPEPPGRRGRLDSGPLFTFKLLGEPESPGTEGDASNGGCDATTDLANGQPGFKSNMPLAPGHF
Format: binding, hamster. The note with it: [3H]-prazosin radioligand; cloned receptor in LTK cell membranes; read-out: Radioligand Binding (Ki, nM) 1b (Hamster). In a few lines: as §1

The target of another assay is T4, α-1a adrenoreceptor (Bos taurus, UniProt P18130).
T4 sequence (P18130 1-466): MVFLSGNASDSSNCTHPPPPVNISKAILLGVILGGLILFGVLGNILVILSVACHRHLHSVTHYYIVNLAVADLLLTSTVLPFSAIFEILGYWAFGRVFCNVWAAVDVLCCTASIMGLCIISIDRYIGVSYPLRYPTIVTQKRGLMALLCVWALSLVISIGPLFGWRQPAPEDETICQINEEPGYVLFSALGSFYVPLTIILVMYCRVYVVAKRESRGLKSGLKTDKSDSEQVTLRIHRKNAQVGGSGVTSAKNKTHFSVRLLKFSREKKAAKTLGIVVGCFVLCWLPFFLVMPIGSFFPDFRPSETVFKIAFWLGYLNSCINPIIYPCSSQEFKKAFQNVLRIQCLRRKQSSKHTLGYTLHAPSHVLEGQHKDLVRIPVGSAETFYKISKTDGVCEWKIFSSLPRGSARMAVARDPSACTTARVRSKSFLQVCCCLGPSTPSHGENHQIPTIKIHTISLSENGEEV
Format: binding, bovine. The note with it: [3H]-prazosin radioligand; cloned receptor in LTK cell membranes; read-out: Radioligand Binding (Ki, nM) 1a (Bovine). In a few lines:
as §1

SMILES strings stand for the structures. Structures can show the parent of a compound that is named as a salt.

As usually defined, the Ki is a dissociation constant, usually derived from enzyme kinetics or from competition with a known ligand. Take `COc1cccc2c1[C@@H]1CN(CCCCn3c(=O)[nH]c4c(sc5ncc(-c6ccsc6)nc54)c3=O)C[C@@H]1CO2` [Example 57, 3-[4-((3aR,9bR)-cis-9-Methoxy-1,2,3,3a,4,9b-hexahydro-[1]-benzopyrano[3,4-c]pyrrol-2-yl)butyl]-8-(3-thienyl)-pyrazino[2',3':4,5]thieno[3,2-d]pyrimidine-2,4(1H,3H)-dione dihydrochloride]: the Ki on α-1d adrenoreceptor is 0.507 nM; in assay [1], 0.682 nM; on α-1b adrenoreceptor it was 19.3 nM; on α-1a adrenoreceptor, 0.078 nM.
For `COc1cccc2c1[C@@H]1CN(CCCCn3c(=O)[nH]c4c(sc5ccc(-c6cccnc6)nc54)c3=O)C[C@H]1CO2` [Example 58, 3-[4-((3aS,9bR)-trans-9-Methoxy-1,2,3,3a,4,9b-hexahydro-[1]-benzopyrano[3,4-c]pyrrol-2-yl)butyl]-8-(3-pyridyl)-pyrido[2',3':4,5]thieno[3,2-d]pyrimidine-2,4(1H,3H)-dione trihydrochloride], the Ki came to 0.039 nM at α-1d adrenoreceptor, 0.273 nM in assay [1], 2.08 nM on α-1b adrenoreceptor and 0.188 nM on α-1a adrenoreceptor.
Consider `COc1cccc2c1[C@@H]1CN(CCCCn3c(=O)[nH]c4c(sc5ncc(-c6ccsc6)nc54)c3=O)C[C@H]1CO2` [Example 59, 3-[4-((3aS,9bR)-trans-9-Methoxy-1,2,3,3a,4,9b-hexahydro-[1]-benzopyrano[3,4-c]pyrrol-2-yl)butyl]-8-(3-thienyl)-pyrazino[2',3':4,5]thieno[3,2-d]pyrimidine-2,4(1H,3H)-dione dihydrochloride], for which the Ki on α-1d adrenoreceptor came to 0.257 nM; in assay [1], 0.166 nM; at α-1b adrenoreceptor it was 6.74 nM; at α-1a adrenoreceptor, 0.049 nM.
On the same counts, the results for `COc1cccc2c1[C@@H]1CN(CCCCn3c(=O)[nH]c4c(sc5ncc(-c6cccnc6)nc54)c3=O)C[C@H]1CO2` [Example 60, 3-[4-((3aS,9bR)-trans-9-Methoxy-1,2,3,3a,4,9b-hexahydro-[1]-benzopyrano[3,4-c]pyrrol-2-yl)butyl]-8-(3-pyridyl)-pyrazino[2',3':4,5]thieno[3,2-d]pyrimidine-2,4(1H,3H)-dione dihydrochloride] are 1.82 nM, 0.187 nM, 14.2 nM and 0.078 nM.
Taken in the same sequence, the figures for `COc1cccc2c1[C@@H]1CN(CCCCn3c(=O)[nH]c4c(sc5ncc(-c6cccnc6)nc54)c3=O)C[C@@H]1CO2` [Example 61, 3-[4-((3aR,9bR)-cis-9-Methoxy-1,2,3,3a,4,9b-hexahydro-[1]-benzopyrano[3,4-c]pyrrol-2-yl)butyl]-8-(3-pyridyl)-pyrazino[2',3':4,5]thieno[3,2-d]pyrimidine-2,4(1H,3H)-dione dihydrochloride] were 0.336 nM, 0.152 nM, 8.85 nM and 0.15 nM.
On the same counts, the results for `COc1cccc2c1[C@@H]1CN(CCCCn3c(=O)[nH]c4c(sc5ncc(-c6ccoc6)nc54)c3=O)C[C@@H]1CO2` [Example 62, 3-[4-((3aR,9bR)-cis-9-Methoxy-1,2,3,3a,4,9b-hexahydro-[1]-benzopyrano[3,4-c]pyrrol-2-yl)butyl]-8-(3-furyl)-pyrazino[2',3':4,5]thieno[3,2-d]pyrimidine-2,4(1H,3H)-dione dihydrochloride] are 411 nM, 983 nM, 1150 nM and 52 nM.
Consider `COc1cccc2c1[C@@H]1CCN(CCCn3c(=O)[nH]c4c(sc5cccnc54)c3=O)C[C@H]1CO2` [Example 92, 3-[3-((4aS,10bR)-trans-10-Methoxy-1,3,4,4a,5,10b-hexahydro-2H-[1]-benzopyrano[3,4-c]pyrido-3-yl)propyl]-pyrido[2',3':4,5]thieno[3,2-d]pyrimidine-2,4(1H,3H)-dione dihydrochloride], for which the Ki on α-1d adrenoreceptor was determined as 18.5 nM; in assay [1], 3.85 nM; at α-1b adrenoreceptor it was 45.1 nM; on α-1a adrenoreceptor, 2.2 nM.
As to `COc1cccc2c1[C@H]1CCN(CCCn3c(=O)[nH]c4c(sc5cccnc54)c3=O)C[C@@H]1CO2` [Example 93, 3-[3-((4aR,10bS)-trans-10-Methoxy-1,3,4,4a,5,10b-hexahydro-2H-[1]-benzopyrano[3,4-c]pyrido-3-yl)propyl]-pyrido[2',3':4,5]thieno[3,2-d]pyrimidine-2,4(1H,3H)-dione dihydrochloride], the inhibition constant Ki at α-1d adrenoreceptor was 11.5 nM; in assay [1] it was 4.04 nM; at α-1b adrenoreceptor, 3.67 nM; on α-1a adrenoreceptor, 1.2 nM.
On the same counts, the results for `COc1cccc2c1[C@H]1CCN(CCCCn3c(=O)[nH]c4c(sc5cccnc54)c3=O)C[C@@H]1CO2` [Example 94, 3-[4-((4aR,10bS)-trans-10-Methoxy-1,3,4,4a,5,10b-hexahydro-2H-[1]-benzopyrano[3,4-c]pyrido-3-yl)butyl]-pyrido[2',3':4,5]thieno[3,2-d]pyrimidine-2,4(1H,3H)-dione dihydrochloride] are 0.361 nM, 0.185 nM, 1.97 nM and 0.097 nM.
On the same counts, the results for `COc1cccc2c1[C@H]1CCN(CCCCn3c(=O)[nH]c4c(sc5ncc(Cl)nc54)c3=O)C[C@@H]1CO2` [Example 96, 3-[4-((4aR,10bS)-trans-10-Methoxy-1,3,4,4a,5,10b-hexahydro-2H-[1]-benzopyrano[3,4-c]pyrido-3-yl)butyl]-8-chloro-pyrazino[2',3':4,5]thieno[3,2-d]pyrimidine-2,4(1H,3H)-dione dihydrochloride] are 0.816 nM, 0.816 nM, 10.4 nM and 0.211 nM.
On the same counts, the results for `COc1ccc2sc3c(=O)n(CCCCN4CC[C@H]5c6c(OC)cccc6OC[C@@H]5C4)c(=O)[nH]c3c2n1` [Example 98, 3-[4-((4aS,10bR)-trans-10-Methoxy-1,3,4,4a,5,10b-hexahydro-2H-[1]-benzopyrano[3,4-c]pyrido-3-yl)butyl]-8-methoxy-pyrido[2',3':4,5]thieno[3,2-d]pyrimidine-2,4(1H,3H)-dione hydrochloride] are 0.324 nM, 1.02 nM, 2.65 nM and 0.121 nM.
